Reference: patent US20220107328A1, “METHODS OF TREATING LIVER DISEASES” (Camp4 Therapeutics Corporation, priority 2018, published 2022)
Blank lines part the entries; values can stand above or below the molecule they belong to.

Experiments:
PNPLA3 mRNA [1] = assay: qRT-PCR of PNPLA3 mRNA in compound-treated primary human hepatocytes; details: for Primary Hepatocytes 4178 PNPLA3 (fold change in mRNA expression): donor 4178, 3 μM; for Primary Hepatocytes 4178 PNPLA3 (fold change in mRNA expression) / Primary Hepatocytes 4282 PNPLA3 (fold change in mRNA expression): relative to GUSB; for Primary Hepatocytes 4282 PNPLA3 (fold change in mRNA expression): donor 4282, 3 μM; for Relative PNPLA3 mRNA levels: human hepatocytes; for Relative PINPLA3 mRNA: hepatocytes
COL1A1 mRNA = assay: qRT-PCR of COL1A1 mRNA in human primary hepatic stellate cells; type: cell-based; details: for Primary Stellate cells COL1A1 (fold change in mRNA expression): 3 μM, relative to GAPDH; for Relative COL1A1 mRNA levels RQ: GSK3 inhibitors in hepatic stellate cells; for COL1A1 expression (in words): hepatic stellate cells, serial dilutions, 18 hours
PNPLA3 mRNA [2] = assay: qRT-PCR of PNPLA3 mRNA in human primary hepatic stellate cells; type: cell-based; details: for Primary Stellate cells PNPLA3 (fold change in mRNA expression): 3 μM, relative to GAPDH; for Relative PNPLA3 mRNA levels RQ: GSK3 inhibitors in hepatic stellate cells; for PNPLA3 mRNA levels (in words): hepatic stellate cells, serial dilutions, 18 hours
PCSK9 mRNA = assay: qRT-PCR of PCSK9 mRNA in primary hepatocytes; type: cell-based, human; details: donor 4178, 3 μM, relative to GUSB
[3] = JAK inhibitors, 10 μM, qRT-PCR, mean of three replicates ± standard deviation

Primary Hepatocytes 4178 PNPLA3 (fold change in mRNA expression) (PNPLA3 mRNA [1]): 0.73
Primary Hepatocytes 4282 PNPLA3 (fold change in mRNA expression) (PNPLA3 mRNA [1]): 0.85
Primary Hepatocytes 4178 PCSK9 (fold change in mRNA expression) (PCSK9 mRNA): 0.74
Compound: C[C@H](Nc1ncnc2[nH]cnc12)c1cc2ccc(F)cc2nc1-c1ccccn1 [AMG319]
Primary Stellate cells COL1A1 (fold change in mRNA expression) (COL1A1 mRNA): 0.99
Primary Stellate cells PNPLA3 (fold change in mRNA expression) (PNPLA3 mRNA [2]): 0.99

Compound: Cc1cc(Nc2nc(N[C@@H](C)c3ncc(F)cn3)ncc2Cl)[nH]n1 [AZD1480]
Relative PNPLA3 mRNA levels (PNPLA3 mRNA [1]; [3]): 0.69 ± 0.10
PNPLA3 expression (in words) (PNPLA3 mRNA [1]; validation in human hepatocytes from a second donor, qRT-PCR): efficient downregulation of PNPLA3

Primary Hepatocytes 4178 PNPLA3 (fold change in mRNA expression) (PNPLA3 mRNA [1]): 0.43
Primary Hepatocytes 4282 PNPLA3 (fold change in mRNA expression) (PNPLA3 mRNA [1]): 0.80
Primary Hepatocytes 4178 PCSK9 (fold change in mRNA expression) (PCSK9 mRNA): 0.36
Compound: CNC(=O)c1cccc(-c2ccc3c(N4CCOC[C@@H]4C)nc(N4CCOC[C@@H]4C)nc3n2)c1 [AZD2014]
Primary Stellate cells COL1A1 (fold change in mRNA expression) (COL1A1 mRNA): 0.55
Primary Stellate cells PNPLA3 (fold change in mRNA expression) (PNPLA3 mRNA [2]): 0.56

Compound: CN1CCN(S(=O)(=O)c2ccc(-c3cnc(N)c(C(=O)Nc4cccnc4)n3)cc2)CC1 [AZD2858]
Relative COL1A1 mRNA levels RQ (COL1A1 mRNA; 1 μM): 0.83
Relative COL1A1 mRNA levels RQ (COL1A1 mRNA; 10 μM): 0.72
COL1A1 expression (in words) (COL1A1 mRNA): modestly decreased both PNPLA3 and COL1A1 in a dose dependent manner
Relative PNPLA3 mRNA levels RQ (PNPLA3 mRNA [2]; 1 μM): 0.48
Relative PNPLA3 mRNA levels RQ (PNPLA3 mRNA [2]; 10 μM): 0.72
PNPLA3 mRNA levels (in words) (PNPLA3 mRNA [2]): modestly decreased both PNPLA3 and COL1A1 in a dose dependent manner

Primary Hepatocytes 4178 PCSK9 (fold change in mRNA expression) (PCSK9 mRNA): 0.56
Compound: Cc1cc([C@@H](C)Nc2ccccc2C(=O)O)c2nc(N3CCOCC3)cc(=O)n2c1 [AZD6482]
Primary Stellate cells COL1A1 (fold change in mRNA expression) (COL1A1 mRNA): 1.20
Primary Stellate cells PNPLA3 (fold change in mRNA expression) (PNPLA3 mRNA [2]): 0.87

Primary Hepatocytes 4178 PNPLA3 (fold change in mRNA expression) (PNPLA3 mRNA [1]): 0.80
Primary Hepatocytes 4282 PNPLA3 (fold change in mRNA expression) (PNPLA3 mRNA [1]): 0.80
Primary Hepatocytes 4178 PCSK9 (fold change in mRNA expression) (PCSK9 mRNA): 0.70
Compound: C[C@@H](Nc1cc(F)cc(F)c1)c1cc(C(=O)N(C)C)cc2c(=O)cc(N3CCOCC3)oc12 [AZD8186]
Primary Stellate cells COL1A1 (fold change in mRNA expression) (COL1A1 mRNA): 1.22
Primary Stellate cells PNPLA3 (fold change in mRNA expression) (PNPLA3 mRNA [2]): 0.86

Primary Hepatocytes 4178 PNPLA3 (fold change in mRNA expression) (PNPLA3 mRNA [1]): 1.00
Primary Hepatocytes 4282 PNPLA3 (fold change in mRNA expression) (PNPLA3 mRNA [1]): 1.00
Primary Hepatocytes 4178 PCSK9 (fold change in mRNA expression) (PCSK9 mRNA): 0.99
Compound: C[C@H](Nc1ncnc2[nH]cnc12)c1nc2ccc(F)cc2c(=O)n1-c1ccccc1 [Acalisib]
Primary Stellate cells COL1A1 (fold change in mRNA expression) (COL1A1 mRNA): 0.96
Primary Stellate cells PNPLA3 (fold change in mRNA expression) (PNPLA3 mRNA [2]): 0.91

Compound: CC[C@@H]1C(=O)N(C)c2cnc(Nc3ccc(C(=O)NC4CCN(C)CC4)cc3OC)nc2N1C1CCCC1 [BI 2536]
Relative PINPLA3 mRNA (PNPLA3 mRNA [1]; 10 uM): 0.38

Compound: O=C1Nc2cc(Br)ccc2/C1=C1/Nc2ccccc2/C1=N\O [BIO]
Relative COL1A1 mRNA levels RQ (COL1A1 mRNA; 1 μM): 0.74
Relative COL1A1 mRNA levels RQ (COL1A1 mRNA; 10 μM): 0.59
COL1A1 expression (in words) (COL1A1 mRNA): modestly decreased both PNPLA3 and COL1A1 in a dose dependent manner
Relative PNPLA3 mRNA levels RQ (PNPLA3 mRNA [2]; 1 μM): 1.09
Relative PNPLA3 mRNA levels RQ (PNPLA3 mRNA [2]; 10 μM): 0.54
PNPLA3 mRNA levels (in words) (PNPLA3 mRNA [2]): modestly decreased both PNPLA3 and COL1A1 in a dose dependent manner

Compound: O=C(NCCCNc1nc(Nc2cccc(NC(=O)N3CCCC3)c2)ncc1I)c1cccs1 [BX795]
Relative PNPLA3 mRNA levels (PNPLA3 mRNA [1]; TBK1 inhibitor, concentration not given): 0.51±0.06

Compound: Nc1cc(C(F)(F)F)c(-c2cc(N3CCOCC3)nc(N3CCOCC3)n2)cn1 [Buparlisib (BKM120, NVP-BKM120)]
Relative PINPLA3 mRNA (PNPLA3 mRNA [1]; 0.1 uM): 1.049
Relative PINPLA3 mRNA (PNPLA3 mRNA [1]; 0.3 uM): 0.729
Relative PINPLA3 mRNA (PNPLA3 mRNA [1]; 1 uM): 0.659
Relative PINPLA3 mRNA (PNPLA3 mRNA [1]; 3 uM): 0.515

Compound: CCS(=O)(=O)N1CCN(c2ccc(Nc3ncc(C(N)=O)c(NC4CC4)n3)cc2)CC1 [Cerdulatinib]
Relative PNPLA3 mRNA levels (PNPLA3 mRNA [1]; [3]): 0.82 ± 0.00

Compound: Cc1cnc(Nc2ccc(OCCN3CCCC3)cc2)nc1Nc1cccc(S(=O)(=O)NC(C)(C)C)c1 [Fedratinib (SAR302503, TG101348)]
Relative PINPLA3 mRNA (PNPLA3 mRNA [1]; 10 uM): 0.25

Compound: O=C(Nc1nc2cccc(-c3ccc(CN4CCS(=O)(=O)CC4)cc3)n2n1)C1CC1 [Filgotinib]
Relative PNPLA3 mRNA levels (PNPLA3 mRNA [1]; [3]): 1.07 ± 0.14
Relative PINPLA3 mRNA (PNPLA3 mRNA [1]; 1 uM): 0.781
Relative PINPLA3 mRNA (PNPLA3 mRNA [1]; 10 uM): 0.365

Primary Hepatocytes 4178 PCSK9 (fold change in mRNA expression) (PCSK9 mRNA): 0.59
Compound: Cc1c(Cn2c(C)nc3c(C(=O)O)cc(N4CCOCC4)cc32)cccc1C(F)(F)F [GSK2636771]
Primary Stellate cells COL1A1 (fold change in mRNA expression) (COL1A1 mRNA): 1.04
Primary Stellate cells PNPLA3 (fold change in mRNA expression) (PNPLA3 mRNA [2]): 1.06

Compound: Cc1cc(Nc2cc(CN3CCOCC3)c3nc(C)c(Cc4ccc(Cl)cc4F)n3n2)n[nH]1 [Gandotinib]
Relative PNPLA3 mRNA levels (PNPLA3 mRNA [1]; [3]): 0.76 ± 0.13

Compound: Cl.NNc1nncc2ccccc12 [Hydralazine HCI]
Relative PINPLA3 mRNA (PNPLA3 mRNA [1]; 10 uM): 0.25

Compound: COc1cc2ncnc(Nc3ccc(O)cc3)c2cc1OC [JANEX-1]
Relative PNPLA3 mRNA levels (PNPLA3 mRNA [1]; [3]): 0.78 ± 0.11
